Where two headings read alike, the source gives them in different places.
Columns and labels:
[1] = tested on: H5N1 A/great black-headed gull/Qinghai/2009 (H5N1); parameters: species or system influenza A virus H5N1; details: in vivo, 20 mg/kg/day
[2] = tested on: H1N1 WSN (A/WSN/33); test: H1N1 WSN-infected mice: lung index; type: in vivo, influenza A virus H1N1; details: DPI 8; for lung injury index of mice caused by H1N1 WSN infection: 20 mg/kg/d i.p. from Day 4, vs high toxicity group, P<0.05
[3] = tested on: H1N1 WSN (A/WSN/33); parameters: species or system influenza A virus H1N1; details: in vivo; for activities of the infected mice / body temperature drop / body weight drop / discomfort caused by influenza / mice died / mice in group / mortality of mice caused by H1N1 WSN infection: ip, 20 mg/kg/day
[4] = tested on: H5N1; type: cell-based, influenza A virus H5N1; details: 1 μM; 24 h
[5] = oral and systemic use; cited from earlier work
[6] = mouse, in vivo; cited from earlier work
[7] = tested on: H1N1; parameters: species or system influenza A virus H1N1; details: in vivo
[8] = tested on: H1N1 WSN (A/WSN/33); test: H1N1 WSN-infected mice: pulmonary vascular permeability test (Evans Blue); type: in vivo, influenza A virus H1N1; details: DPI 8; 20 mg/kg/d i.p. from Day 4; vs high toxicity group; Tamiflu P<0.05, CBD P<0.01
[9] = tested on: H1N1 WSN (A/WSN/33); test: H1N1 WSN-infected mice: pathological section of lung tissue (HE); type: in vivo, influenza A virus H1N1; details: DPI 8; 20 mg/kg/d i.p. from Day 4
[10] = tested on: H5N1; parameters: species or system influenza A virus H5N1; details: in vivo
[11] = tested on: IAV; parameters: species or system Influenza A Virus; details: in vivo
[12] = tested on: H1N1 WSN; type: cell-based, influenza A virus H1N1; details: 24 h
[13] = tested on: H1N1 WSN; type: cell-based, influenza A virus H1N1; details: 24 h; remark: listed apart in the source
[14] = tested on: H1N1 WSN (A/WSN/33); test: H1N1 WSN-infected mice: inflammatory cells in alveolar lavage fluid (Diff-Quick staining); type: in vivo, influenza A virus H1N1; details: DPI 8, 20 mg/kg/d; for number of macrophages in the alveolar lavage fluid: Tamiflu P<0.01, CBD P<0.001
[15] = of the 119 deaths; cited from earlier work

C=C(C)[C@@H]1CCC(C)=C[C@H]1c1c(O)cc(CCCCC)cc1O [CBD, Cannabidiol]
activities of the infected mice [1]: significantly increased
discomfort caused by influenza [1]: significantly alleviated
mortality (mice died / mice in group) [1]: 10/10
mortality compared with the influenza group [1]: no significant difference
survival time of mice after H5N1 infection prolonged by [1]: 24 h
body temperature drop ([1]; ip): significantly inhibited
body weight drop caused by H5N1 ([1]; ip): Significantly Inhibited
lung injury index of mice caused by H1N1 WSN infection [2]: significantly reduced
lung index, CBD group compared with Tamiflu group ([2]; both 20 mg/kg/d): no significant difference
mortality, CBD group compared with Tamiflu group [3]: no significant difference
activities of the infected mice [3]: significantly increased
body temperature drop [3]: significantly inhibited
body weight drop [3]: significantly inhibited
discomfort caused by influenza [3]: significantly alleviated
mice died / mice in group [3]: 10/20
mortality of mice caused by H1N1 WSN infection [3]: significantly reduced
expression of NP gene in H5N1 [4]: significantly reduced
expression of PA gene in H5N1 [4]: significantly reduced
expression of PB1 gene in H5N1 [4]: significantly reduced
expression of PB2 gene in H5N1 [4]: significantly reduced
severity of joint damage and the acute and chronic courses of arthritis [5]: significantly reduce
LPS-induced acute lung injury [6]: inhibits
mortality in mice caused by IAV infection [7]: inhibited the same mortality
mouse pulmonary capillary permeability caused by H1N1 WSN infection [8]: significantly reduced
inflammatory cell infiltration (lung pathology) [9]: significantly reduced
mortality in mice caused by IAV infection [10]: inhibited the same mortality
mortality of mice caused by IAV infection ([11]; 20 mg/kg/day): significantly inhibited
mortality of mice caused by IAV infection ([11]; 60 mg/kg/day): significantly inhibited
expression of PA gene in H1N1 WSN ([12]; 5 μM): significantly reduced
expression of PB1 gene in H1N1 WSN ([12]; 5 μM): significantly reduced
expression of NP gene in H1N1 WSN ([13]; 5 μM): significantly reduced
expression of PA gene in H1N1 WSN ([13]; 5 μM): significantly reduced
expression of PB1 gene in H1N1 WSN ([13]; 5 μM): significantly reduced
expression of PB2 gene in H1N1 WSN ([13]; 5 μM): significantly reduced
number of neutrophils in the alveolar lavage fluid, compared with the Tamiflu group [14]: very significant reduction
number of macrophages in the alveolar lavage fluid, compared with the Tamiflu group ([14]; P<0.05): significant reduction
number of macrophages in the alveolar lavage fluid [14]: significantly reduced
number of lymphocytes in the alveolar lavage fluid ([14]; vs IAV treatment group, P<0.01): significantly reduced
number of neutrophils in the alveolar lavage fluid ([14]; vs high toxicity treatment group, P<0.001): significantly reduced

CCOC(=O)C1=C[C@@H](OC(CC)CC)[C@H](NC(C)=O)[C@@H](N)C1 [Tamiflu, oseltamivir, reference compound]
lung injury index of mice caused by H1N1 WSN infection [2]: significantly reduced
activities of the infected mice [3]: significantly increased
body temperature drop [3]: significantly inhibited
body weight drop [3]: significantly inhibited
discomfort caused by influenza [3]: significantly alleviated
mice died / mice in group [3]: 9/20
mortality of mice caused by H1N1 WSN infection [3]: significantly reduced
expression of NP gene in H5N1 [4]: significantly reduced
expression of PA gene in H5N1 [4]: significantly reduced
expression of PB1 gene in H5N1 [4]: significantly reduced
expression of PB2 gene in H5N1 [4]: significantly reduced
deaths who took Tamiflu that experienced severe illness or death within 12 hours after taking the drug [15]: 38
mouse pulmonary capillary permeability caused by H1N1 WSN infection [8]: significantly reduced
inflammatory cell infiltration (lung pathology) [9]: significantly reduced
mortality of mice caused by IAV infection ([11]; 20 mg/kg/day): significantly inhibited
expression of PA gene in H1N1 WSN ([12]; 10 μM): no significant inhibitory effect
expression of PB1 gene in H1N1 WSN ([12]; 10 μM): no significant inhibitory effect
expression of NP gene in H1N1 WSN ([13]; 10 μM): no significant inhibitory effect
expression of PA gene in H1N1 WSN ([13]; 10 μM): no significant inhibitory effect
expression of PB1 gene in H1N1 WSN ([13]; 10 μM): no significant inhibitory effect
expression of PB2 gene in H1N1 WSN ([13]; 10 μM): no significant inhibitory effect
number of macrophages in the alveolar lavage fluid [14]: significantly reduced
